{"source": "the METLIN SMRT retention time set (Domingo-Almenara et al. 2019)"}
{"assay": "gradient 5% acetonitrile 3 min, to 50% in 2 min, to 85% in 15 min, held 3 min, 100 µL/min", "conditions": "column: Zorbax Extend-C18 2.1 x 50 mm; eluents: water / acetonitrile, 0.1% formic acid", "procedure,_shortened": "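Standards, all pure, were combined into mixtures of ~100 molecules and run at 100 μL/min on a Zorbax Extend-C18 column (2.1 × 50 mm, 1.8 μm) with water and acetonitrile, each containing 0.1% formic acid. A coupled quadrupole time-of-flight mass spectrometer operated in positive and negative ionization mode. Retention time values come from computationally picked adduct peaks, each inspected manually.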", "units": {"RP-LC retention time": "s"}}
{"compound": "Cc1c(Cl)cccc1NC(=O)c1cnc(-c2ccccc2)nc1-c1ccncc1", "RP-LC retention time": 954}
{"compound": "CCCS(=O)(=O)NCc1ccc2c(c1)CCN2C(=O)c1ccc(Cl)cc1", "RP-LC retention time": 918}
{"compound": "O=C(NCCc1cccs1)C1CCCN(c2nc3ccsc3c(=O)n2Cc2ccccc2)C1", "note": "(stereo not drawn)", "RP-LC retention time": 949}
{"compound": "O=C1C2N=NN(Cc3nc(-c4ccccc4Br)no3)C2C(=O)N1c1ccc(F)cc1", "note": "(stereo not drawn)", "RP-LC retention time": 960}
{"compound": "COC1CCC12CCN(C(=O)c1ccc(C)s1)CC2", "note": "(stereo not drawn)", "RP-LC retention time": 895}
{"compound": "COC(=O)[C@@H]1[C@H]2C[C@@H]3c4[nH]c5ccccc5c4CCN3C[C@@H]2CC[C@@H]1O", "RP-LC retention time": 660}
{"compound": "CCNC(=O)c1sc2nc(-c3cccc(F)c3)c(NCCOC)n2c1C", "RP-LC retention time": 800}
{"compound": "Cc1cc(Cl)ccc1NC(=O)CN(C)S(=O)(=O)c1cc(C(=O)N2CCC(C)CC2)n(C)c1", "RP-LC retention time": 934}
{"compound": "CCCN1CCN(C(=O)c2cccn2Cc2noc(-c3ccccc3)n2)CC1", "RP-LC retention time": 653}
{"compound": "COCCCNC(=O)c1ccc(-n2nc(Sc3ccc(Cl)cc3)ccc2=O)cc1", "RP-LC retention time": 863}
{"compound": "COc1cccc(CN2CC(=O)N(Cc3cccc(F)c3)c3ccccc3S2(=O)=O)c1", "RP-LC retention time": 1070}
{"compound": "O=C(NC1CC1)c1ccc(OCC2CCCN(C(=O)c3ccoc3)C2)cc1", "note": "(stereo not drawn)", "RP-LC retention time": 712}
{"compound": "CCOC(=O)c1c(C)[nH]c(CN(Cc2ccc3c(c2)OCO3)C(=O)c2ccco2)c1C", "RP-LC retention time": 991}
{"compound": "CCN(Cc1ccncc1)C1CN(C(=O)NCc2ccc(C)cc2)C1", "RP-LC retention time": 591}
{"compound": "COc1cc(NC(=O)COc2nc(C)nc3ccccc23)cc(OC)c1OC", "RP-LC retention time": 649}
{"compound": "CCOC(=O)C1CCN(C(=O)C2CCCN(c3nccc(C)n3)C2)CC1", "note": "(stereo not drawn)", "RP-LC retention time": 698}
{"compound": "CCCNC(=O)c1ncn2c1C(=O)N(CCC)C(C)(C(=O)NCc1ccc(C)cc1)C2", "note": "(stereo not drawn)", "RP-LC retention time": 750}
{"compound": "CCn1nccc1-c1cccc(-c2noc(C3CCN(S(=O)(=O)c4ccc(C)cc4)CC3)n2)c1", "RP-LC retention time": 1170}
{"compound": "O=C1CCN([C@@H]2O[C@H](CO)[C@@H](O)[C@H]2O)C(=O)N1", "RP-LC retention time": 933}
{"compound": "COC(=O)c1ccc(-c2nc3cnccn3c2Nc2cccc(Cl)c2C)cc1", "RP-LC retention time": 988}
{"compound": "Cc1cc(C)n(-c2nc(C)c(C(=O)N(CCO)Cc3ccccc3)s2)n1", "RP-LC retention time": 859}
{"compound": "O=C(c1ccc(S(=O)(=O)c2ccccc2)s1)N1CCN(c2ccccn2)CC1", "RP-LC retention time": 652}
{"compound": "CCc1csc(-c2ccc(N3CCN(C(=O)c4ccc(Cl)nc4)CC3)nc2)n1", "RP-LC retention time": 832}
{"compound": "O=S(=O)(NCCc1c[nH]c2ncccc12)c1ccc(Br)s1", "RP-LC retention time": 673}
{"compound": "COc1cc(NC(=O)Nc2nccn(-c3cc(C)cc(C)c3)c2=O)cc(OC)c1", "RP-LC retention time": 913}
{"compound": "CC1CCCCN1Cc1nc(-c2ccc(N(C)Cc3ccccc3)nc2)no1", "note": "(stereo not drawn)", "RP-LC retention time": 912}
{"compound": "Cc1sc2ccn(CC(C)C)c(=O)c2c1C(=O)N1CCN(c2ccccn2)CC1", "RP-LC retention time": 618}
{"compound": "CCCN1CCCCc2cc(C(=O)NC3CCS(=O)(=O)C3)sc21", "note": "(stereo not drawn)", "RP-LC retention time": 884}
{"compound": "CCCCNc1nc(NCC)nc(-n2cnc(SC)n2)n1", "RP-LC retention time": 880}
{"compound": "COc1ccccc1-c1nc(-c2ccc3c(c2)ncn3CCN2CCOCC2)no1", "RP-LC retention time": 625}
{"compound": "OCCNCc1ccc(-c2ccc(Cl)cc2)o1", "RP-LC retention time": 966}
{"compound": "N#CC1C=Cc2c(ccc3ccccc23)N1C(=O)c1ccccc1", "note": "(stereo not drawn)", "RP-LC retention time": 1090}
{"compound": "CCOC(=O)COC(=O)c1cn(-c2cccc(C)c2)c(=O)c2ccccc12", "RP-LC retention time": 718}
{"compound": "CC1CCCN(CC2CCN(C(=O)Nc3ccc(Br)cc3)CC2)C1", "note": "(stereo not drawn)", "RP-LC retention time": 661}
{"compound": "CCc1cccc(NC(=O)c2cc(CC)n3nccc3n2)c1", "RP-LC retention time": 1150}
{"compound": "Nc1nc(-c2ccccc2)nn1C(=O)C1CC1", "RP-LC retention time": 800}
{"compound": "Cc1cc(C)cc(C(=O)NC2CCN(c3cc(-c4cccs4)[nH]n3)C2)c1", "note": "(stereo not drawn)", "RP-LC retention time": 742}
{"compound": "Cc1cccc(N2CCN(C(=O)c3c(C)sc4ccn(C)c(=O)c34)CC2)c1", "RP-LC retention time": 769}
{"compound": "CCOC(=O)c1cc(S(=O)(=O)N2CCCC2C(=O)Nc2nc3ccc(OC)cc3s2)cn1C", "note": "(stereo not drawn)", "RP-LC retention time": 947}
{"compound": "COc1ccc(NC(=O)Cn2nc3cc(-c4ccccc4)nc(C)n3c2=O)c(OC)c1", "RP-LC retention time": 918}
{"compound": "CC(C)n1c(=O)sc2cc(S(=O)(=O)N3CCC(C(=O)NCCc4ccccc4)CC3)ccc21", "RP-LC retention time": 985}
{"compound": "COc1ccc(S(=O)(=O)N2CCc3c(C(=O)NCCN(C)C)cccc32)cc1", "RP-LC retention time": 635}
{"compound": "COc1ccc(C)cc1NS(=O)(=O)c1cc2c(s1)CCN(C(=O)C1CC1)C2", "RP-LC retention time": 839}
{"compound": "COc1ccc(NC(=O)CN2CCc3[nH]c4c(F)c(Cl)ccc4c(=O)c3C2)c(OC)c1", "RP-LC retention time": 637}
{"compound": "N#Cc1ccc(C(=O)N2CC(n3cc(COCC4CC4)nn3)C2)cc1", "RP-LC retention time": 691}
{"compound": "Cc1nc(N2CCOCC2)c2c(C(=O)NCc3ccc(Cl)cc3)c(C)oc2n1", "RP-LC retention time": 797}
{"compound": "CC1(C)Cc2cccc(OCC(=O)NCC3CCN(S(C)(=O)=O)CC3)c2O1", "RP-LC retention time": 715}
{"compound": "O=C(CSc1nc(-c2ccccc2)c(-c2ccccc2)o1)NCCCO", "RP-LC retention time": 760}
{"compound": "CC1=C(c2ccc(C)cc2)S(=O)(=O)N=C1N1CCCN(C(=O)NC2CCCCC2)CC1", "RP-LC retention time": 890}
{"compound": "Cc1ccc(CNC(=O)CCc2c(C)nn(-c3cc(N4CCOCC4)ncn3)c2C)o1", "RP-LC retention time": 700}
{"compound": "Cc1ccc(-c2cc3c(=O)n(Cc4nc(-c5ccc(Cl)cc5)no4)ncn3n2)c(C)c1", "RP-LC retention time": 1320}
{"compound": "O=C(NCCc1ccco1)C1CCN(c2nc3cccnc3s2)CC1", "RP-LC retention time": 697}
{"compound": "CCc1nc(-c2ccc(S(=O)(=O)N3CCC(C(=O)N4CCc5ccccc54)CC3)cc2)no1", "RP-LC retention time": 802}
{"compound": "COc1c(NC=O)c2c(c([N+](=O)[O-])c1OC)C(=O)OC2", "RP-LC retention time": 760}
{"compound": "CCN1CCN(c2nc3c(c(Nc4ccccc4)n2)C(=O)CCC3)CC1", "RP-LC retention time": 1040}
{"compound": "O=C(NCCn1nc(-c2cccs2)ccc1=O)c1cc(-c2cccs2)[nH]n1", "RP-LC retention time": 573}
{"compound": "Cc1ccc(OCC(=O)N2CCC(c3noc(-c4cnccn4)n3)C2)cc1", "note": "(stereo not drawn)", "RP-LC retention time": 754}
{"compound": "COc1cccc(N2CCN(c3cc(SCC(=O)NCc4ccccc4)ncn3)CC2)c1", "RP-LC retention time": 891}
{"compound": "O=C(Cc1csc2nc(-c3ccccc3)cn12)Nc1ccc(F)cc1F", "RP-LC retention time": 809}
{"compound": "CC(=O)Nc1ccc(CC(=O)NC(C(=O)N2CCCc3ccccc32)c2ccccc2)cc1", "note": "(stereo not drawn)", "RP-LC retention time": 803}
{"compound": "CCN1CCCC1CNC(=O)CN1C(=O)CCn2nc(-c3cn(C)c4ccccc34)cc21", "note": "(stereo not drawn)", "RP-LC retention time": 571}
{"compound": "CCOc1ccc(C(=O)N2CCN(c3nc(CN4CCOCC4)cs3)CC2)cc1", "RP-LC retention time": 615}
{"compound": "ONC(=NCc1ccccc1)c1ccccc1", "RP-LC retention time": 690}
{"compound": "COc1ccc(C2C(C(=O)N3CCOCC3)c3cc(OC)c(OC)cc3C(=O)N2C)cc1OC", "note": "(stereo not drawn)", "RP-LC retention time": 637}
{"compound": "CCn1c(=O)c(C)nc2cc(-c3noc(-c4ccc5c(c4)OCO5)n3)ccc21", "RP-LC retention time": 1030}
{"compound": "O=C(Cn1cnc2nc(N3CCCC(C(=O)NC4CC4)C3)sc2c1=O)Nc1ccc2c(c1)CCC2", "note": "(stereo not drawn)", "RP-LC retention time": 744}
{"compound": "CCOc1ccc(S(=O)(=O)N2CCC(C(=O)Nc3ccc(C(N)=O)cc3)CC2)cc1C", "RP-LC retention time": 782}
{"compound": "Cn1nnnc1C1CCCN(C(=O)C2CCC2)C1", "note": "(stereo not drawn)", "RP-LC retention time": 636}
{"compound": "Cc1nnc(-c2nnc(N3CCC(C)CC3)c3ccccc23)o1", "RP-LC retention time": 824}
{"compound": "Cc1[nH]c(C(=O)N2CCCC(C(=O)NCc3ccc4c(c3)OCO4)C2)c(C)c1C", "note": "(stereo not drawn)", "RP-LC retention time": 804}
{"compound": "Cc1c2cnn(CC(=O)NCc3ccc4c(c3)OCO4)c(=O)c2c(C)n1Cc1cccc(Cl)c1", "RP-LC retention time": 880}
{"compound": "Cc1ccc(S(=O)(=O)N2C[C@@H](F)C[C@H]2C(=O)N2CCOCC2)c(C)c1", "RP-LC retention time": 740}
{"compound": "Cc1ccccc1Cn1nc2ccc(S(=O)(=O)N3CCCC3)cn2c1=O", "RP-LC retention time": 891}
{"compound": "Cc1ccc(-c2csc(NC(=O)c3sc(C)nc3C)n2)cc1", "RP-LC retention time": 974}
{"compound": "CC(C)NC(=O)c1ccc(-c2nnc3ccc(NC(=O)C4CCC4)cn23)cc1", "RP-LC retention time": 724}
{"compound": "CCc1ccc(NC(=O)Cn2cnc3nc(N4CCCC(C(=O)NC(C)C)C4)sc3c2=O)cc1", "note": "(stereo not drawn)", "RP-LC retention time": 710}
{"compound": "COC(=O)C1=C(C)NC2=C(C(=O)CC(C)(C)C2)C1c1cc(OC)c(OC)c(OC)c1", "note": "(stereo not drawn)", "RP-LC retention time": 684}
{"compound": "O=C(Nc1ccc(NC(=O)N2CCC(C(=O)NCC3CC3)CC2)cc1)NC1CCCCC1", "RP-LC retention time": 733}
{"compound": "COC(=O)C1=C(CN2CCOCC2)NC(=O)NC1c1ccc(C)cc1C", "note": "(stereo not drawn)", "RP-LC retention time": 609}
{"compound": "CCCn1ncc(N2CCC(C(=O)NCC3CCCO3)CC2)cc1=O", "note": "(stereo not drawn)", "RP-LC retention time": 608}
{"compound": "COc1ccc(N2CCN(Cc3nc4nc(C)cc(N5CCCCC5)n4n3)CC2)cc1", "RP-LC retention time": 660}
{"compound": "O=C(C1CCCN(c2ncccc2-c2noc(C3CCC3)n2)C1)N1CCCCC1", "note": "(stereo not drawn)", "RP-LC retention time": 928}
{"compound": "CCOc1ccc(C2C3=C(CCCC3=O)Nc3c2c(=O)n(C)c(=O)n3C)cc1OC", "note": "(stereo not drawn)", "RP-LC retention time": 806}
{"compound": "CCC(CC)C(=O)Nc1nc(-c2ccc(Cl)cc2)cs1", "RP-LC retention time": 1150}
{"compound": "CCc1nc(N2CCCC2=O)sc1C(=O)Nc1ccc(OC)c(Cl)c1", "RP-LC retention time": 905}
{"compound": "O=C(c1ccc(CS(=O)(=O)c2c(Cl)cccc2Cl)o1)N1CCN(c2ccccn2)CC1", "RP-LC retention time": 634}
{"compound": "COCc1cc(=O)n2c(n1)N(Cc1ccccc1F)CC2", "RP-LC retention time": 660}
{"compound": "O=C1OC(c2ccccc2)=N/C1=C\\c1ccc(N(CCCl)CCCl)cc1", "RP-LC retention time": 1240}
